Measured values published in patent US20230202985A1, “Indoles, Indazoles, and Related Analogs for Inhibiting YAP/TAZ-TEAD” (THE KATHOLIEKE UNIVERSITEIT LEUVEN, priority 2021, published 2023).

Test system: YAP/TAZ-TEAD transcription
Assay: Reporter gene assay for measuring the inhibition of YAP/TAZ-TEAD transcription (TEAD-responsive element luciferase reporter in Hek293T cells)
Type: cell-based
Settings: Homo sapiens, HEK-293T; Hek293T cells transfected with TEAD-responsive luciferase reporter, 24 hours incubation
Method: Hek293T cells are cultured in DMEM supplemented with 10% fetal bovine serum, Sodium pyruvate, Sodium bicarbonate, L-glutamine. The cells are harvested and transiently transfected with TEAD-responsive element luciferase reporter. Transfected cells are plated in 384-wells plate containing pre-diluted compounds. After 24 hours incubation at 37° C./5% CO2, assay plates were cooled down to RT and levelled to an equal volume per well, prior to the addition of 25 uL luciferase substrate SteadyLite (Perkin Elmer)/well. The plate was shaken for 10 min at 600 rpm, centrifuged for 1 min at 500 rpm and measured with an Envision reader (PerkinElmer). The amount of relative light units produced by the TEAD reporter is used to calculated percent of inhibition.
The percent of reporter inhibition was calculated in the presence of a positive control inhibitor (100% inhibition) versus a condition with the presence of the vehicle basal activity of the reporter (0% inhibition). The ability of a test compound to inhibit this activity was determined as:
Percentage inhibition=[1−((RLU determined in the presence of vehicle−RLU determined for sample with test compound present) divided by (RLU determined in the presence of vehicle−RLU determined for sample with positive control inhibitor))]*100
The activities of example compounds tested are depicted in Table 6. The activity ranges A, B and C refer to IC50 values in the reporter gene assay as follows: “A”: IC50<1 μM; “B”: 1 μM≤IC50≤20 μM and “C”: IC50>20 μM; NT=not tested.

SMILES | EC50 [µM]
CS(=O)(=O)NCc1nn(-c2ccc(C(F)(F)F)cc2)c2ccc(OCC3CCOC3)cc12 (racemic) [compound 44, N-[[5-[[rac-tetrahydrofuran-3-yl]methoxy]-1-[4-(trifluoromethyl)phenyl]indazol-3-yl]methyl]methanesulfonamide] | 1 to 20
CS(=O)(=O)NCc1nn(-c2ccc(C(F)(F)F)cc2)c2ccc(Oc3ccccc3)cc12 [Cpd. No. 45, N-[[5-phenoxy-1-[4-(trifluoromethyl)phenyl]indazol-3-yl]methyl]methanesulfonamide] | 1 to 20
CCC(=O)NCc1nn(-c2ccc(C(F)(F)F)cc2)c2ccccc12 [compound 2, N-((1-(4-(trifluoromethyl)phenyl)-1H-indazol-3-yl)methyl)propionamide] | 1 to 20
CCC(=O)NCc1nn(-c2ccc(OC(F)(F)F)cc2)c2ccccc12 [compound 5, N-((1-(4-(trifluoromethoxy)phenyl)-1H-indazol-3-yl)methyl)propionamide] | 1 to 20
CS(=O)(=O)NCc1nn(-c2ccc(OC(F)(F)F)cc2)c2ccccc12 [compound 6, N-((1-(4-(trifluoromethoxy)phenyl)-1H-indazol-3-yl)methyl)methanesulfonamide] | 1 to 20
O=S1(=O)CCCN1Cc1nn(-c2ccc(C(F)(F)F)cc2)c2ccccc12 [compound 7, 2-((1-(4-(trifluoromethyl)phenyl)-1H-indazol-3-yl)methyl)isothiazolidine 1,1-dioxide] | 1 to 20
CNC(=O)c1nn(-c2ccc(C(F)(F)F)cc2)c2ccccc12 [compound 8, N-methyl-1-(4-(trifluoromethyl)phenyl)-1H-indazole-3-carboxamide] | > 20
Cn1cc(S(=O)(=O)NCc2nn(-c3ccc(C(F)(F)F)cc3)c3ccccc23)cn1 [compound 9, 1-methyl-N-((1-(4-(trifluoromethyl)phenyl)-1H-indazol-3-yl)methyl)-1H-pyrazole-4-sulfonamide] | > 20
O=S(=O)(NCc1nn(-c2ccc(C(F)(F)F)cc2)c2ccccc12)c1cccnc1 [compound 10, N-((1-(4-(trifluoromethyl)phenyl)-1H-indazol-3-yl)methyl)pyridine-3-sulfonamide] | > 20
O=S(=O)(NCc1nn(-c2ccc(C(F)(F)F)cc2)c2ccccc12)C1CC1 [compound 11, N-((1-(4-(trifluoromethyl)phenyl)-1H-indazol-3-yl)methyl)cyclopropanesulfonamide] | 1 to 20
CS(=O)(=O)NC(=O)c1nn(-c2ccc(C(F)(F)F)cc2)c2ccccc12 [compound 12, N-(methylsulfonyl)-1-(4-(trifluoromethyl)phenyl)-1H-indazole-3-carboxamide] | 1 to 20
CN(C)S(=O)(=O)NCc1nn(-c2ccc(C(F)(F)F)cc2)c2ccccc12 [compound 13, N,N-dimethyl-N′-((1-(4-(trifluoromethyl)phenyl)-1H-indazol-3-yl)methyl)sulfamide] | 1 to 20
O=C(NS(=O)(=O)C1CC1)c1nn(-c2ccc(C(F)(F)F)cc2)c2ccccc12 [compound 14, N-(cyclopropylsulfonyl)-1-(4-(trifluoromethyl)phenyl)-1H-indazole-3-carboxamide] | > 20
O=C(NCC(O)CO)c1nn(-c2ccc(C(F)(F)F)cc2)c2ccccc12 (stereo not drawn) [compound 15, N-(2,3-dihydroxypropyl)-1-(4-(trifluoromethyl)phenyl)-1H-indazole-3-carboxamide] | 1 to 20
CS(=N)(=O)NCc1nn(-c2ccc(C(F)(F)F)cc2)c2ccccc12 (stereo not drawn) [compound 16, N-((1-(4-(trifluoromethyl)phenyl)-1H-indazol-3-yl)methyl)methanesulfonimidamide] | 1 to 20
O=C1NCCN1Cc1nn(-c2ccc(C(F)(F)F)cc2)c2ccccc12 [compound 17, 1-((1-(4-(trifluoromethyl)phenyl)-1H-indazol-3-yl)methyl)imidazoiidin-2-one] | < 1
O=C1OCCN1Cc1nn(-c2ccc(C(F)(F)F)cc2)c2ccccc12 [compound 18, 3-((1-(4-(trifluoromethyl)phenyl)-1H-indazol-3-yl)methyl)oxazolidin-2-one] | < 1
C=CC(=O)Nc1cn(-c2ccccc2)c2ccccc12 [compound 22, N-(1-phenyl-1H-indol-3-yl)acrylamide] | 1 to 20
C=CC(=O)Nc1cn(-c2ccc(C(C)C)cc2)c2ccccc12 [compound 23, N-(1-(4-isopropylphenyl)-1H-indol-3-yl)acrylamide] | < 1
C=CC(=O)Nc1cn(-c2ccc(Cl)cc2)c2ccccc12 [compound 24, N-(1-(4-chlorophenyl)-1H-indol-3-yl)acrylamide] | < 1

SMILES | EC50 [µM]
C=CC(=O)Nc1cn(-c2cccc(Cl)c2)c2ccccc12 [compound 25, N-(1-(3-chlorophenyl)-1H-indol-3-yl)acrylamide] | 1 to 20
C=CC(=O)Nc1cn(-c2ccc(-c3ccccc3)cc2)c2ccccc12 [compound 26, N-(1-([1,1′-biphenyl]-4-yl)-1H-indol-3-yl)acrylamide] | < 1
CCC(=O)NCc1cn(-c2ccc(C(F)(F)F)cc2)c2ccccc12 [compound 28, N-((1-(4-(trifluoromethyl)phenyl)-1H-indol-3-yl)methyl)propionamide] | 1 to 20
CCC(=O)NCc1cc2ccccc2n1-c1ccc(C(F)(F)F)cc1 [compound 30, N-((1-(4-(trifluoromethyl)phenyl)-1H-indol-2-yl)methyl)propionamide] | > 20
C=CC(=O)NCc1cc2ccccc2n1Cc1cccc(C(F)(F)F)c1 [compound 32, N-((1-(3-(trifluoromethyl)benzyl)-1H-indol-2-yl)methyl)acrylamide] | < 1
C=CC(=O)NC1C(=O)N(c2ccc(C(F)(F)F)cc2)c2ccccc21 (stereo not drawn) [compound 33, N-(2-oxo-1-(4-(trifluoromethyl)phenyl)indolin-3-yl)acrylamide] | 1 to 20
CC(=O)NC1C(=O)N(c2ccc(C(F)(F)F)cc2)c2ccccc21 (stereo not drawn) [compound 34, N-(2-oxo-1-(4-(trifluoromethyl)phenyl)indolin-3-yl)acetamide] | > 20
Cn1ccc(-c2cc(-c3ccccc3)cn3cc(CC(=O)O)nc23)n1 [compound 35, 2-(8-(1-methyl-1H-pyrazol-3-yl)-6-phenylimidazo[1,2-a]pyridin-2-yl)acetic acid] | > 20
O=C(O)Cc1cn2cc(-c3ccccc3)cc(-c3cnn(Cc4cccnc4)c3)c2n1 [compound 36, 2-(6-phenyl-8-(1-(pyridin-3-ylmethyl)-1H-pyrazol-4-yl)imidazo[1,2-a]pyridin-2-yl)acetic acid] | > 20
CNC(=O)Cc1cn2cc(-c3ccccc3)cc(-c3ccn(C)n3)c2n1 [compound 37, N-methyl-2-(8-(1-methyl-1H-pyrazol-3-yl)-6-phenylimidazo[1,2-a]pyridin-2-yl)acetamide] | > 20
Cn1ccc(-c2cc(Nc3ccccc3)cn3cc(CC(=O)O)nc23)n1 [compound 38, 2-(8-(1-methyl-1H-pyrazol-3-yl)-6-(phenylamino)imidazo[1,2-a]pyridin-2-yl)acetic acid] | > 20
CNC(=O)Cc1cn2cc(Nc3ccccc3)cc(-c3ccn(C)n3)c2n1 [compound 39, N-methyl-2-(8-(1-methyl-1H-pyrazol-3-yl)-6-(phenylamino)imidazo[1,2-a]pyridin-2-yl)acetamide] | > 20
C=CC(=O)NCc1nn(-c2ccc(C(F)(F)F)cc2)c2ccncc12 [compound 41, N-((1-(4-(trifluoromethyl)phenyl)-1H-pyrazolo[4,3-c]pyridin-3-yl)methyl)acrylamide] | < 1
CS(=O)(=O)NCc1nn(-c2ccc(C(F)(F)F)cc2)c2ccc(OCC#N)cc12 [compound 42, N-[[5-(cyanomethoxy)-1-[4-(trifluoromethyl)phenyl]indazol-3-yl]methyl]methanesulfonamide] | > 20
C=CC(=O)NCc1nn(-c2ccc(C(F)(F)F)cc2)c2ccc(Oc3cc(=O)[nH]c(=O)n3C)cc12 [compound 51, N-[[5-(3-methyl-2,6-dioxo-pyrimidin-4-yl)oxy-1-[4-(trifluoromethyl)phenyl]indazol-3-yl]methyl]prop-2-enamide] | < 1
CS(=O)(=O)NCc1nn(-c2ccc(C(F)(F)F)cc2)c2ccc(OCc3cc[nH]n3)cc12 [compound 52, N-[[5-(1H-pyrazol-3-ylmethoxy)-1-[4-(trifluoromethyl)phenyl]indazol-3-yl]methyl]methanesulfonamide] | 1 to 20
CCC(=O)NCc1nn(-c2ccc(C(F)(F)F)cc2)c2ccc(Oc3cc(=O)[nH]c(=O)n3C)cc12 [compound 53, N-[[5-(3-methyl-2,6-dioxo-pyrimidin-4-yl)oxy-1-[4-(trifluoromethyl)phenyl]indazol-3-yl]methyl]propanamide] | > 20
CCC(=O)NCc1nn(-c2ccc(C(F)(F)F)cc2)c2ccc(OCc3ccccc3)cc12 [compound 55, N-[[5-benzyloxy-1-[4-(trifluoromethyl)phenyl]indazol-3-yl]methyl]propanamide] | > 20
CS(=O)(=O)NCc1nn(-c2ccc(C(F)(F)F)cc2)c2ccc(OCc3ccccc3)cc12 [compound 56, N-[[5-benzyloxy-1-[4-(trifluoromethyl)phenyl]indazol-3-yl]methyl]methanesulfonamide] | 1 to 20
